Where “and” joins values, the source holds several entries; their conditions need not be identical. Equal entries are not always repeated. Where two headings read alike, the source gives them in different places.
Assays:
[1] = system: Glioma PDCs (Glioblastoma Grade IV); experiment: Anti-proliferation assay (CellTiterGlo, 72 h) on glioma PDCs; assay type: cell-based, human; details: drug alone @ 10 uM; for inhibition at 10 µM: Homo sapiens
Experimental: The outermost rows/columns of the plates were filled with PBS (pH 7.4) to avoid an edge-effect and were considered as blanks. Standardized aqueous extracts identified in Table 2 were prepared in main stock solutions by dissolving 1 mg of extract in 1 ml PBS (phosphate-buffered saline, pH 7.4). […] The plate was incubated in a CO2 incubator for 0/N incubation for 24 hours. […] Once extracts were added to incubated cells and mixed gently, the plate was given a brief spin and incubated in the CO2 incubator for 72 hours. The plate was removed from the incubator and 10 ul of detection reagent (CellTiterGlo®; Promega Corporation, Wisconsin, USA) added to each well of the 384 well plate. […] The assay described above is a two-dimensional (2D) assay.

[2] = system: TN breast cancer PDCs SB 30750; experiment: Anti-proliferation assay on TN breast cancer PDCs SB 30750; assay type: cell-based; details: Homo sapiens
Experimental: In this Example, AyuFlex®, Capros®, and Ayuric® were each applied to different PDCs than previous tests, TN breast cancer PDCs SB 30750, and tested via the anti-proliferation assay described above. […] Incubation times were 72 hours.

[3] = system: Prostate cancer (PC-3) cells; experiment: Anti-proliferation assay on prostate cancer cells; assay type: cell-based; details: Homo sapiens
Experimental: (§1) Cells were plated at 1.25 k/well in 384 well plates. […] Anti-proliferative assays were generally performed as discussed in Example I above, in triplicate, with detection reagent CellTiterGlo. Tables 80-82 show data for controls for assays on prostate cancer (PC-3 cells), and that the data passed quality control parameters. Tables 83-85 show data for controls for assays on ovarian cancer (OVCAR-3 cells), and that the data passed quality control parameters.

[4] = system: colon cancer cells (cell line HT-29); experiment: Anti-proliferation assay on colon cancer cells; assay type: cell-based; details: Homo sapiens
Experimental: Anti-proliferative and anti-cancer activity of extracts of this invention on non-small cell lung cancer cells and colon cancer cells were assessed generally as described in Example I and are discussed below. […] As noted throughout this application, the below data is intended to describe the present invention but not to be limiting.
Non-small cell lung cancer cells (cell line NCI-H-358) and colon cancer cells (cell line HT-29) were plated in a 384-well plate in amounts of about 1.25 k cells/well. […] Wells with untreated cells and with plain media were also included as controls. Plates passed quality control parameters.

AML cell line HL60 = experiment: Anti-proliferation assay on HL60 AML cells; assay type: cell-based; details: for inhibition at 10 µM: 72 h, Plate 1
Experimental: 2500 cells were plated per well in 384 well plates. […] CellTiter Glo was used as a detection reagent. Extracts were incubated with the AML HL60 cells for 72 hours.

[5] = system: Ovarian cancer (OVCAR-3) cells; experiment: Anti-proliferation assay on ovarian cancer cells; assay type: cell-based; details: Homo sapiens
Experimental: as §1

[6] = system: Acute Promyelocytic Leukemia PDCs (APL-SB 46120); experiment: Anti-proliferation assay on APL subtype AML PDCs; assay type: cell-based; details: Homo sapiens
Experimental: In this Example, AML drugs were used as disease specific controls.
The AML PDCs evaluated below were an Acute Promyelocytic Leukemia (APL, APML) subtype, APL-SB 46120, from a human subject.
IC25 values were calculated using IC50 and hill slope. […] The drugs were used in these concentrations on the new APL subtype cells as described further below. […]

[7] = system: Histiocytic lymphoma (U-937) cells; experiment: Anti-proliferation assay on histiocytic lymphoma cells; assay type: cell-based; details: Homo sapiens
Experimental: (§2) Cells were plated at 1.25 k/well in 384 well plates. […] Anti-proliferative assays were generally performed as described in Example I above, in triplicate, with detection reagent CellTiterGlo. Tables 98-99 show data for controls for assays on histiocytic lymphoma (U-937) cells, and that the data passed quality control parameters. Tables 101-102 show data for controls for assays on pancreatic cancer (Panc-1) cells, and that the data passed quality control parameters. […] The assay is generally as described in Example I.

[8] = system: Glioma SB 32833 Glioblastoma Grade IV patient derived cells; experiment: Anti-proliferation assay on glioma PDCs SB 32833; assay type: cell-based; details: Homo sapiens, drug @ 10 uM
Experimental: The anti-cancer activity of AyuFlex®, Capros®, and Ayuric® was further tested on two other glioma PDCs taken from 2-3 different subjects (SB 6129, SB 32833 (person)). […] Also, the anti-cancer activity of AyuFlex®, Capros®, and Ayuric® was further tested on existing glioblastoma cell line U87 MG, to allow comparisons with other compositions known in the art. AyuFlex®, Capros®, and/or Ayuric® were incubated with the new PDC lines and the U87 MG cell line for 72 hours, as described in Example I above.
Table 68 relates to FIG. 31, a graph showing the efficacy of AyuFlex®, Capros®, and/or Ayuric® on Glioma SB 32833 Glioblastoma Grade IV patient derived cells, in a combination study.

[9] = system: Pancreatic cancer (Panc-1) cells; experiment: Anti-proliferation assay on pancreatic cancer cells; assay type: cell-based; details: Homo sapiens
Experimental: as §2

[10] = 10 uM, 72 h, read-out: % Inhibition n1
[11] = 10 uM, 72 h, read-out: % Inhibition n2
[12] = 10 uM, 72 h, read-out: % Inhibition n3
[13] = 10 uM, 72 h, read-out: % Inhibition Average (SD)
[14] = drug 10 uM, read-out: inhibition

**Q.** For `COc1cccc2c1C(=O)c1c(O)c3c(c(O)c1C2=O)C[C@@](O)(C(=O)CO)C[C@@H]3O[C@H]1C[C@H](N)[C@H](O)[C@H](C)O1` [Doxorubicin, doxorubicin], which inhibition at 10 µM ([1]; read-out: % Inhibition Avg) is on record?
**A.** The inhibition at 10 µM was 82%.

**Q.** And the inhibition at 10 µM ([1]; read-out: % Inhibition, single replicates)?
**A.** The inhibition at 10 µM was 81%.

**Q.** And the “% Inhibition Avg” value ([1]; 10 µM)?
**A.** The value was 97%.

**Q.** And the “% Inhibition, single replicates” value ([1]; 10 µM)?
**A.** The value was 83% and 98% and 97% and 96%.

**Q.** And the inhibition at 10 µM ([2]; 10 uM, 72 h, read-out: % Inhibition Avg)?
**A.** The inhibition at 10 µM was 68%.

**Q.** What about the inhibition at 10 µM [2, 10] of the same compound?
**A.** Its inhibition at 10 µM is 78%.

**Q.** What about the inhibition at 10 µM [2, 11] of the same compound?
**A.** The inhibition at 10 µM was 68%.

**Q.** What about the inhibition at 10 µM [2, 12] of the same compound?
**A.** Its inhibition at 10 µM is 58%.

**Q.** What about the inhibition at 10 µM ([2]; read-out: % Inhibition Average (SD)) of the same compound?
**A.** The inhibition at 10 µM was 68%.

**Q.** And the inhibition at 10 µM ([2]; read-out: % Inhibition n1)?
**A.** The inhibition at 10 µM was 78%.

**Q.** What about the inhibition at 10 µM ([2]; read-out: % Inhibition n2) of the same compound?
**A.** Its inhibition at 10 µM is 68%.

**Q.** What about the inhibition at 10 µM ([2]; read-out: % Inhibition n3) of the same compound?
**A.** Its inhibition at 10 µM is 58%.

**Q.** And the inhibition at 10 µM [3, 13]?
**A.** Its inhibition at 10 µM is 70%.

**Q.** What about the inhibition at 10 µM [3, 10] of the same compound?
**A.** The inhibition at 10 µM was 70%.

**Q.** What about the inhibition at 10 µM [3, 11] of the same compound?
**A.** Its inhibition at 10 µM is 70%.

**Q.** What about the inhibition at 10 µM [3, 12] of the same compound?
**A.** Its inhibition at 10 µM is 71%.

**Q.** What about the inhibition at 10 µM [3, 14] of the same compound?
**A.** Its inhibition at 10 µM is 70%.

**Q.** What about the inhibition at 10 µM ([4]; drug 10 uM, read-out: inhibition of proliferation) of the same compound?
**A.** The inhibition at 10 µM was 94%.

**Q.** And the inhibition at 10 µM ([4]; plate control @ 10 uM, read-out: % Inhibition Average (SD))?
**A.** Its inhibition at 10 µM is 94%.

**Q.** What about the inhibition at 10 µM ([4]; plate control @ 10 uM, read-out: % Inhibition n1) of the same compound?
**A.** Its inhibition at 10 µM is 94%.

**Q.** What about the inhibition at 10 µM ([4]; plate control @ 10 uM, read-out: % Inhibition n2) of the same compound?
**A.** The inhibition at 10 µM was 93%.

**Q.** What about the inhibition at 10 µM ([4]; plate control @ 10 uM, read-out: % Inhibition n3) of the same compound?
**A.** Its inhibition at 10 µM is 94%.

**Q.** What about the IC25 (AML cell line HL60; HL60 AML cells, potential dosing for further experiments) of the same compound?
**A.** The IC25 was 59 nM.

**Q.** And the inhibition at 3 µM (AML cell line HL60; Homo sapiens, HL-60)?
**A.** The inhibition at 3 µM was ≥ 90%.

**Q.** What about the inhibition at 10 µM (AML cell line HL60; Homo sapiens, HL-60, read-out: % Inhibition Average (SD)) of the same compound?
**A.** Its inhibition at 10 µM is 0%.

**Q.** And the inhibition at 10 µM (AML cell line HL60; Homo sapiens, HL-60, read-out: % Inhibition n1)?
**A.** Its inhibition at 10 µM is 100%.

**Q.** And the inhibition at 10 µM (AML cell line HL60; Homo sapiens, HL-60, read-out: % Inhibition n2)?
**A.** The inhibition at 10 µM was 100%.

**Q.** What about the inhibition at 10 µM (AML cell line HL60; Homo sapiens, HL-60, read-out: % Inhibition n3) of the same compound?
**A.** The inhibition at 10 µM was 100%.

**Q.** And the IC50 (AML cell line HL60; Homo sapiens, HL-60, dose-response curve, FIG. 35)?
**A.** Its IC50 is 79 nM.

**Q.** What about the inhibition at 10 µM [5, 13] of the same compound?
**A.** The inhibition at 10 µM was 76%.

**Q.** What about the inhibition at 10 µM [5, 10] of the same compound?
**A.** Its inhibition at 10 µM is 74%.

**Q.** What about the inhibition at 10 µM [5, 11] of the same compound?
**A.** The inhibition at 10 µM was 75%.

**Q.** What about the inhibition at 10 µM [5, 12] of the same compound?
**A.** The inhibition at 10 µM was 79%.

**Q.** What about the inhibition at 10 µM [5, 14] of the same compound?
**A.** The inhibition at 10 µM was 76%.

**Q.** And the inhibition at 10 µM ([6]; Plate 1 quality control, read-out: % Inhibition Average)?
**A.** Its inhibition at 10 µM is 96%.

**Q.** What about the inhibition at 10 µM ([6]; Plate 1 quality control, read-out: % Inhibition n1) of the same compound?
**A.** Its inhibition at 10 µM is 97%.

**Q.** And the inhibition at 10 µM ([6]; Plate 1 quality control, read-out: % Inhibition n2)?
**A.** The inhibition at 10 µM was 96%.

**Q.** And the inhibition at 10 µM ([6]; Plate 1 quality control, read-out: % Inhibition n3)?
**A.** Its inhibition at 10 µM is 95%.

**Q.** What about the inhibition at 10 µM ([6]; Plate 2 quality control, read-out: % Inhibition Average) of the same compound?
**A.** The inhibition at 10 µM was 97%.

**Q.** What about the inhibition at 10 µM ([6]; Plate 2 quality control, read-out: % Inhibition n1) of the same compound?
**A.** The inhibition at 10 µM was 98%.

**Q.** And the inhibition at 10 µM ([6]; Plate 2 quality control, read-out: % Inhibition n2)?
**A.** Its inhibition at 10 µM is 97%.

**Q.** And the inhibition at 10 µM ([6]; Plate 2 quality control, read-out: % Inhibition n3)?
**A.** Its inhibition at 10 µM is 97%.

**Q.** And the inhibition at 10 µM [7, 13]?
**A.** The inhibition at 10 µM was 100%.

**Q.** What about the inhibition at 10 µM [7, 10] of the same compound?
**A.** Its inhibition at 10 µM is 100%.

**Q.** What about the inhibition at 10 µM [7, 11] of the same compound?
**A.** The inhibition at 10 µM was 100%.

**Q.** What about the inhibition at 10 µM [7, 12] of the same compound?
**A.** The inhibition at 10 µM was 100%.

**Q.** And the inhibition at 10 µM [7, 14]?
**A.** Its inhibition at 10 µM is 100%.

**Q.** And the inhibition at 10 µM ([8]; read-out: % Inhibition Avg)?
**A.** Its inhibition at 10 µM is 87%.

**Q.** What about the inhibition at 10 µM ([8]; read-out: % Inhibition n1) of the same compound?
**A.** Its inhibition at 10 µM is 91%.

**Q.** What about the inhibition at 10 µM ([8]; read-out: % Inhibition n2) of the same compound?
**A.** Its inhibition at 10 µM is 86%.

**Q.** What about the inhibition at 10 µM ([8]; read-out: % Inhibition n3) of the same compound?
**A.** Its inhibition at 10 µM is 86%.

**Q.** And the inhibition at 10 µM [9, 13]?
**A.** The inhibition at 10 µM was 94%.

**Q.** And the inhibition at 10 µM [9, 10]?
**A.** The inhibition at 10 µM was 94%.

**Q.** And the inhibition at 10 µM [9, 11]?
**A.** Its inhibition at 10 µM is 94%.

**Q.** What about the inhibition at 10 µM [9, 12] of the same compound?
**A.** The inhibition at 10 µM was 95%.

**Q.** And the inhibition at 10 µM [9, 14]?
**A.** The inhibition at 10 µM was 94%.
